Source: PubChem BioAssay (NCI)
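1) Cells in 96-well plates. 2) Compound, 48 h, 5 concentrations. 3) Linear interpolation between surrounding doses. 4) Unreached endpoint = highest concentration. GI50 is the concentration that inhibits growth by half. TGI marks complete inhibition of growth.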

Key:
Test in all cases: inhibition of tumour cell growth, NCI panel, 48 h
A498 renal = system: A498 renal
CAKI-1 renal = system: CAKI-1 renal
HCT-15 colon = system: HCT-15 colon
IGROV1 ovarian = system: IGROV1 ovarian
OVCAR-8 ovarian = system: OVCAR-8 ovarian
RXF 393 renal = system: RXF 393 renal
SF-268 CNS = system: SF-268 CNS
HOP-62 NSCLC = system: HOP-62 NSCLC
NCI-H460 lung = system: NCI-H460 lung
OVCAR-3 ovarian = system: OVCAR-3 ovarian

Row | Compound | TGI (A498 renal) [µM] | TGI (CAKI-1 renal) [µM] | TGI (HCT-15 colon) [µM] | TGI (IGROV1 ovarian) [µM] | TGI (OVCAR-8 ovarian) [µM] | TGI (RXF 393 renal) [µM] | TGI (SF-268 CNS) [µM] | TGI (HOP-62 NSCLC) [µM] | TGI (NCI-H460 lung) [µM] | TGI (OVCAR-3 ovarian) [µM] | GI50 (A498 renal) [µM] | GI50 (CAKI-1 renal) [µM] | GI50 (HCT-15 colon) [µM] | GI50 (IGROV1 ovarian) [µM] | GI50 (NCI-H460 lung) [µM] | GI50 (OVCAR-3 ovarian) [µM] | GI50 (OVCAR-8 ovarian) [µM] | GI50 (SF-268 CNS) [µM] | GI50 (RXF 393 renal) [µM] | GI50 (HOP-62 NSCLC) [µM]
1 | c1ccc(C2Nc3ccccc3C3OCCCC23)cc1 (stereo not drawn) | 71.9 | 42.3 | > 100 | 70.2 | 44.3 | 50.4 | > 100 | – | – | – | – | – | – | – | – | – | – | – | – | –
2 | CSC(C1c2ccccc2N(c2ccc(C)cc2)c2[nH]c(=O)n(C)c(=O)c21)S(=O)(=O)c1ccc(C)cc1 (stereo not drawn) | > 100 | > 100 | – | > 100 | > 100 | – | > 100 | > 100 | > 100 | > 100 | – | – | – | – | – | – | – | – | – | –
3 | CCN(CC)c1ccc(N=Nc2ccc(-c3nc4ccc[n+](C)c4s3)cc2)cc1 | 26.6 | 40.3 | 32.1 | 46.2 | 65.3 | – | 48.9 | 38.9 | 21.5 | 15.9 | – | – | – | – | – | – | – | – | – | –
4 | C/C(CC(=O)NCCc1ccccc1)=N\NC(=O)C[n+]1ccccc1 | > 100 | – | > 100 | > 100 | > 100 | > 100 | > 100 | > 100 | > 100 | > 100 | – | – | – | – | – | – | – | – | – | –
5 | CN(C)c1cc[c]([Sn]([c]2ccc(N(C)C)cc2)([c]2ccc(N(C)C)cc2)[c]2ccc(N(C)C)cc2)cc1 | 20.3 | 19.4 | > 100 | 19.6 | 56.3 | – | 25.4 | – | 28.1 | 18.9 | 7.47 | 5.13 | > 100 | 5.25 | 12 | 3.38 | 9.57 | 3.67 | – | –
6 | C1C[OH+]CC[OH+]CC[OH+]CC[OH+]CC[OH+]1.[Cl-].[V] | > 100 | > 100 | > 100 | > 100 | > 100 | 36.9 | > 100 | – | > 100 | > 100 | > 100 | 82.2 | > 100 | 42.7 | 46.2 | 58.2 | > 100 | 73.2 | 18.1 | –
7 | CC(CO)(CO)NCCCCn1ccc2c1C(=O)c1c(c(O)c3ccccc3c1O)C2=O | 51 | 30.4 | – | – | 12 | 31.7 | 40.9 | 28.9 | 42.9 | 29.1 | 22.3 | 13.6 | – | – | 13.7 | 5.78 | 3.48 | 14.4 | 4.49 | 14
8 | CCCCCCCCCCCCCCCCCCOc1ccccc1CC(=O)OCC[N+]1(C)CCCC1 | 8.82 | 4.05 | 21 | 3.06 | – | 2.76 | 3.34 | – | 4.65 | 3.13 | 2.18 | 1.6 | 4.1 | 1.52 | 2.15 | 1.63 | – | 1.55 | 1.35 | –
9 | O=C(CCC1OCCO1)Nc1cc(NCc2ccccc2)ccc1OCc1ccccc1 | > 100 | 71.3 | > 100 | > 100 | 58.6 | 77.8 | > 100 | > 100 | > 100 | – | – | – | – | – | – | – | – | – | – | –
